# Reference: ChEMBL document CHEMBL4428109, “Structure-activity relationship studies of non-carboxylic acid peroxisome proliferator-activated receptor α/δ (PPARα/δ) dual agonists” (Bioorg Med Chem, 2016)
# Calls of active or inactive are those of the source. The calls are words filed in the database; no cut-off is given here.
# Columns and labels:
# [1] = biological target: T1, Peroxisome proliferator-activated receptor alpha (Homo sapiens) (UniProt Q07869); assay: Agonist activity at N-terminal Gal4 fused human PPARalpha LBD transfected in HEK293 cells after 24 hrs by luciferase reporter gene assay relative to GW7647; type: cell-based
# T1 sequence (whole entry): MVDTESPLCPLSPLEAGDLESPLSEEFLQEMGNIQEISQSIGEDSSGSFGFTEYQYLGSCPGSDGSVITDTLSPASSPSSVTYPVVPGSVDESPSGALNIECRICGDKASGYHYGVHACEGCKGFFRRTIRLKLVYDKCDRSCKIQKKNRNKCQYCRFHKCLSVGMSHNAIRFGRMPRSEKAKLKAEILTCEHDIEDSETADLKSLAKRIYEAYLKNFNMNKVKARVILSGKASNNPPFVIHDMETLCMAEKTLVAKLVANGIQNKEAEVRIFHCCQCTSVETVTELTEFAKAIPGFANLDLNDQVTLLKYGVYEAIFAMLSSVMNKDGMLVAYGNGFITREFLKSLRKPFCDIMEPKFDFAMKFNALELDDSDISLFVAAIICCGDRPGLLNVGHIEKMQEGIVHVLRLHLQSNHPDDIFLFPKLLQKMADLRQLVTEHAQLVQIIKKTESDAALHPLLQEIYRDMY
# [2] = biological target: T2, Retinoic acid receptor RXR-gamma (Homo sapiens) (UniProt P48443); assay: Agonist activity at RXRgamma (unknown origin) at < 20 uM
# T2 sequence (whole entry): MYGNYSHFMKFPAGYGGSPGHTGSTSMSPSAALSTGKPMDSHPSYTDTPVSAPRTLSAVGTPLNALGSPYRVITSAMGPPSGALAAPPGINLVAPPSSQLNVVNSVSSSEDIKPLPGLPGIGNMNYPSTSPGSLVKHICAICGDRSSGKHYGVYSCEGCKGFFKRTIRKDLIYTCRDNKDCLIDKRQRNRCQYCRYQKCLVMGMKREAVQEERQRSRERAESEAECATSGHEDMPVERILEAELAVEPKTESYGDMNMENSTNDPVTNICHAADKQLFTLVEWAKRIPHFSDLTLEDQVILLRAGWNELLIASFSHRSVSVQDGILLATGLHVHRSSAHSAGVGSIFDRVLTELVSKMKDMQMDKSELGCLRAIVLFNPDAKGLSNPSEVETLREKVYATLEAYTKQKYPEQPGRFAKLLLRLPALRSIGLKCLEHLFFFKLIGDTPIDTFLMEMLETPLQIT
# [3] = biological target: T3, Peroxisome proliferator-activated receptor alpha (Homo sapiens, UniProt Q07869); assay: Agonist activity at N-terminal Gal4 fused human PPARalpha LBD transfected in HEK293 cells after 24 hrs by luciferase reporter gene assay; type: cell-based
# T3 sequence (Q07869 whole entry): T1 sequence (whole entry)
# [4] = biological target: T4, Bile acid receptor (Homo sapiens) (UniProt Q96RI1); assay: Agonist activity at FXR (unknown origin) at < 20 uM
# T4 sequence (whole entry): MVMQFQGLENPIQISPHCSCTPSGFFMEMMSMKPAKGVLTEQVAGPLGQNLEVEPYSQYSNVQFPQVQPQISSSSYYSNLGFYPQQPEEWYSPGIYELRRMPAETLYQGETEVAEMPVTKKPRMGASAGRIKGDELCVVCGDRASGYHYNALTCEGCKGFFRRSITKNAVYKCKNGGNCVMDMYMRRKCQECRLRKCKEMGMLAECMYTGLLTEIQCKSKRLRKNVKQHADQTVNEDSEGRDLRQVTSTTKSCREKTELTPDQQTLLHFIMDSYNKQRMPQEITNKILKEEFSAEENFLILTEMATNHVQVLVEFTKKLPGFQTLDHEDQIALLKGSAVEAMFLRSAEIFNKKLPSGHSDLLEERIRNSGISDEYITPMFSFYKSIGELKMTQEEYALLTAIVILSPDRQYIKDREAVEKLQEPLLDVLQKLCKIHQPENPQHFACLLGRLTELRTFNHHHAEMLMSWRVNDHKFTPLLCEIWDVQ
# [5] = biological target: T5, Oxysterols receptor LXR-alpha (Homo sapiens) (UniProt Q13133); assay: Agonist activity at LXRalpha (unknown origin) at < 20 uM
# T5 sequence (whole entry): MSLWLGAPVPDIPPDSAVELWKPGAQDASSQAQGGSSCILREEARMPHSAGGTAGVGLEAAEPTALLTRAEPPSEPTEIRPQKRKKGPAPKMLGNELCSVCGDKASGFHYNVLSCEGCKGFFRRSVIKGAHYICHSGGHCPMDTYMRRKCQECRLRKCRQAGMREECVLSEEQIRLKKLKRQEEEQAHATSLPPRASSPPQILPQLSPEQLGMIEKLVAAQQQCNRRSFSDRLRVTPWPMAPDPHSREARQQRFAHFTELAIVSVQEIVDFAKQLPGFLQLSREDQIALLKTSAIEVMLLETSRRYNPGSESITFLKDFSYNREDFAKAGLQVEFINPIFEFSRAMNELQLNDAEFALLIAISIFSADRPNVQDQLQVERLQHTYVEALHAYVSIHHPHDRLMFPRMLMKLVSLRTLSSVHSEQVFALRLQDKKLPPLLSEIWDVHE
# [6] = biological target: T6, Peroxisome proliferator-activated receptor delta (Homo sapiens) (UniProt Q03181); assay: Agonist activity at N-terminal Gal4 fused human PPARdelta LBD transfected in HEK293 cells after 24 hrs by luciferase reporter gene assay relative to GW501516; type: cell-based
# T6 sequence (whole entry): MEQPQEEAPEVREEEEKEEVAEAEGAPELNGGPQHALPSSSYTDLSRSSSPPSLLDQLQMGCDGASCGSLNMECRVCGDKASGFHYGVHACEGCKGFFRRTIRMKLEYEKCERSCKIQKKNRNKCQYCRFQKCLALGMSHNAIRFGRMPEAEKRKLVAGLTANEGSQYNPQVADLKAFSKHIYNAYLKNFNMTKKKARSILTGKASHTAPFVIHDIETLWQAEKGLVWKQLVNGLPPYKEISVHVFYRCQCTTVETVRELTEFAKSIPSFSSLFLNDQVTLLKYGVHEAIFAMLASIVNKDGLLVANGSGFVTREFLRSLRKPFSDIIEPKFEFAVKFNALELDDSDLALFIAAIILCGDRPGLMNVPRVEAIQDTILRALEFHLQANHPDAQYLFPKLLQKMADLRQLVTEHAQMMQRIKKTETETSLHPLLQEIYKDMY
compound,measurement,setting,value
CC(=O)NC(C)c1nc(-c2ccc(Oc3ccc(OCc4ccccc4)cc3)cc2)no1 (stereo unspecified),Emax,[1],16 to 35%
same,Activity,[2],inactive
same,EC50,[3],33 nM
same,Activity,[4],inactive
same,Activity,[5],inactive
same,Emax,[6],5 to 10%
